Entries after “also recorded” stand apart in the source; their conditions may differ.
Legend:
Type in all cases: in vivo, C57BL/6J mice
[1] = test system: α5 protein; experiment: Total and surface α5 protein, surface biotinylation and Western blotting; conditions: acute or chronic treatment
Protocol: Dissected hippocampi were processed as described in [Pabba et al. (2014)] with minor modifications.
The following antibodies and their dilutions were used in this study: rabbit polyclonal anti-α5 (1:750; Thermo Fisher Scientific, Waltham, MA, USA), rabbit monoclonal anti-β1-[…] (NK-ATPase) (1:1000; Abcam, Cambridge, MA, USA), and mouse monoclonal anti-β-actin (1:100; Abcam, Cambridge, MA, USA).
Western blotting was performed using 5 μg of protein resolved on 8% SDS-PAGE and transferred onto PVDF membranes and developed using IR-Dye conjugated secondary antibody and detection using LI-COR (NE, USA). Quantification of bands was performed using Image Studio^TM Software (LI-COR, NE, USA). We analyzed α5 surface biotinylation in vehicle versus drug treated mice (N = 6 females and 4 males per group). Total α5 band intensities were normalized to β-actin, whereas surface α5 band intensities were normalized to NK-ATPase.

[2] = test system: mice exposed to unpredictable chronic mild stress (UCMS); experiment: Open field test after UCMS
[3] = test system: mice exposed to unpredictable chronic mild stress (UCMS); experiment: Elevated plus maze after UCMS; conditions: for EPM percentage of entries into open arms: first cohort (Figure 2)
[4] = test system: Gabra5; experiment: Gabra5 transcript expression by qPCR in prelimbic cortex and hippocampus
Protocol: Twenty-four hours after the final behavioral test, mice were injected with either an acute dose of α5-PAM or vehicle 30 min prior to rapid perfusion (2 ml 4%PFA). Brains were rapidly dissected and flash frozen on dry ice. 160 μm thick coronal sections were obtained using a cryostat. The prelimbic cortex and dorsal hippocampus were dissected with a 1 mm diameter micropunch and tissue samples were then frozen at -80°C. Total RNA was extracted with an RNAeasy FFPE kit (Qiagen, Germantown, MD, USA) and tested for purity on a NanoDrop Spectrophotometer (260/280 ≥ 1.9). RNA concentration and integrity (RIN > 7) were then assessed using the Agilent RNA6000 Pico-Kit and Agilent 2100 Bioanalyzer (Agilent Technologies, Santa Clara, CA, USA).
Approximately 90 ng of total RNA was used to generate cDNA via the qScript^TM cDNA Supermix synthesis kit (Quanta Biosciences, Gaithersburg, MD, USA). Real-time quantitative polymerase chain (qPCR) reactions were carried out using SYBR green fluorescence signal (Invitrogen, Carlsbad, CA, USA) and an Opticon Monitor DNA Engine (Bio-Rad, Berkeley, CA, USA). Gene of interest was the α5-subunit of the GABAA receptor (Gabra5). Samples were run in triplicate and ΔCt values were calculated by comparing the Ct values of Gabra5 to the geometric mean of two reference genes, β-Actin and glyceraldehyde 3-phosphate dehydrogenase (Gapdh). Arbitrary signal intensity was calculated as 2^-ΔCt∗10,000.

[5] = male UCMS mice, 37.5 mg/kg acute or chronic (Figure 4B), 37.5 mg/kg
[6] = male mice, UCMS plus single housing, chronic treatment (Figure 4A)

SMILES: C#Cc1ccc2c(c1)C(c1ccccc1F)=N[C@H](C)c1c(C(=O)OCC)ncn1-2 [α5-PAM]
- total or surface α5 protein expression, hippocampus ([1]; female UCMS mice): no difference; also recorded: No significant effect
- total or surface α5 protein expression, hippocampus ([1]; male UCMS mice): no difference; also recorded: No significant effect
- OFT percentage of total distance traveled in the center ([2]; female UCMS mice, chronic treatment, vs UCMS-vehicle, second cohort (Figure 3)): increases; also recorded: higher percentage of their total distance traveled
- OFT behavior ([2]; female and male UCMS mice, acute or chronic 30 mg/kg i.p., first cohort (Figure 2)): did not detect any significant main effects; also recorded: No effect
- OFT, stress-induced behavior [2, 5]: No change; also recorded: failed to reduce
- OFT, UCMS-induced behavioral phenotype [2, 6]: did not alter; also recorded: No significant effect
- EPM open arm behavior ([3]; female UCMS mice, acute or chronic treatment, second cohort with non-stressed controls (Figure 3)): no effect
- EPM percentage of entries into open arms ([3]; female UCMS mice, chronic 30 mg/kg i.p., vs UCMS-vehicle): anti-stress effect; also recorded: increased percentage of open arm entries
- EPM, stress-induced behavior [3, 5]: No change; also recorded: failed to reduce
- EPM percentage of entries into open arms ([3]; male UCMS mice, acute or chronic 30 mg/kg i.p.): No significant differences; also recorded: no effect
- EPM, UCMS-induced behavioral phenotype [3, 6]: did not alter; also recorded: No significant effect
- Gabra5 (α5) transcript expression, prelimbic cortex ([4]; female UCMS mice, acute treatment): significantly increased; also recorded: increases
- Gabra5 (α5-subunit) transcript expression, hippocampus ([4]; female UCMS mice, chronic treatment): increases
- Gabra5 gene expression ([4]; male UCMS mice, acute or chronic treatment, prelimbic cortex and hippocampus): No change
- Gabra5 (α5) transcript expression, prelimbic cortex ([4]; male or female UCMS mice, chronic treatment): No effect

Source: article PMC5118774 (Frontiers in Pharmacology, 2016)
